Laboratory results taken from publication PMC5464344, “Analgesic and anti‐inflammatory properties of novel, selective, and potent EP4 receptor antagonists” (Pharmacology Research & Perspectives, 2017).

Legend:
human EP3 receptor = molecular target: T1, human EP3 receptor (Homo sapiens, UniProt P43115); test: [3H]-PGE2 receptor binding assay, EP3 membranes; settings: HEK293 membranes, geometric mean ± SEM, read-out: hEP1-4 receptor binding EP3 Ki
T1 sequence (P43115 1-359 limits assumed): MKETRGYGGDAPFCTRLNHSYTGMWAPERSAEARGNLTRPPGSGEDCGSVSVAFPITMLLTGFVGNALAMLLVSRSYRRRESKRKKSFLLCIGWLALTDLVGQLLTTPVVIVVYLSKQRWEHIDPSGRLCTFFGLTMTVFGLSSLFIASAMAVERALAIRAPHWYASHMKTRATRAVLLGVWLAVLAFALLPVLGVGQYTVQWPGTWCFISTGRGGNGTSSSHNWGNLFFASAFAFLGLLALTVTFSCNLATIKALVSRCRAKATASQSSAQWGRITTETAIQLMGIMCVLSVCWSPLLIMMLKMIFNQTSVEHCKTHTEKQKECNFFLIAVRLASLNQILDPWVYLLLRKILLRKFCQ
Experimental: (§1) Receptor binding assays were done using membrane preparations of HEK 293 cells transfected with various prostanoid receptors using previously published procedure (Nakao et al. 2007). EP1 and EP4 membranes were prepared from recombinant HEK293 cells stably expressing human EPl receptor (GenBank Accession # AY275470, Clone ID PER0100000, UMR cDNA Resource Center, Rolla, MO) or human EP4 receptor. EP2 and EP3 membranes were prepared from HEK293 cells transiently transfected with human EP2 receptor (GenBank Accession # AY275471, Clone ID PER0200000, UMR cDNA Resource Center, Rolla, MO) or human EP3 receptor (GenBank Accession # AY429108, Clone ID PER3VI0000, UMR cDNA Resource Center, Rolla, MO) plasmids. Frozen cell pellets were homogenized in homogenization buffer (10 mmol/L Tris‐HCl, pH7.4, 250 mmol/L sucrose, 1 mmol/L EDTA, 0.3 mmol/L indomethacin and protease inhibitor cocktail with EDTA (Roche Molecular Biochemicals, catalog # 1691498)) using a Teflon/glass homogenizer. After a low speed centrifugation (200g for 15 min at 4°C) the supernatant was subjected to high speed centrifugation (30,000g for 60 min at 4°C). Membrane protein preparation was aliquoted and quick frozen on dry ice prior to storage at −80°C. […] Compounds were tested in a 96‐well format using a three‐fold dilution series to generate 10‐point curves. […] The binding reaction was performed in 200 μL MES buffer (10 mmol/L MES, pH 6.0, 10 mmol/L MgCl2, and l mmol/L EDTA) using polystyrene 96‐well plates. […] The membranes were harvested by filtration (TomTek harvester), washed four times with cold buffer (10 mmol/L MES, pH 6.0, 10 mmol/L MgCl2), dried in a 60°C oven, and the radioactivity was quantified as counts per min (CPM) using a TopCount detector. […] Data were analyzed using a 4‐parameter nonlinear logistic equation. K i Conversion from IC50 Values (K i = […] where [L] is the ligand concentration). Results are expressed as the geometric mean ± standard deviation or geometric mean ± standard error as noted.

human EP1 receptor = molecular target: T2, human EP1 receptor (Homo sapiens, UniProt P34995); test: [3H]-PGE2 receptor binding assay, EP1 membranes; settings: HEK293 membranes; [3H]-PGE2; geometric mean ± SEM; read-out: hEP1-4 receptor binding EP1 Ki
T2 construct: membrane preparation
T2 sequence (P34995 1-402): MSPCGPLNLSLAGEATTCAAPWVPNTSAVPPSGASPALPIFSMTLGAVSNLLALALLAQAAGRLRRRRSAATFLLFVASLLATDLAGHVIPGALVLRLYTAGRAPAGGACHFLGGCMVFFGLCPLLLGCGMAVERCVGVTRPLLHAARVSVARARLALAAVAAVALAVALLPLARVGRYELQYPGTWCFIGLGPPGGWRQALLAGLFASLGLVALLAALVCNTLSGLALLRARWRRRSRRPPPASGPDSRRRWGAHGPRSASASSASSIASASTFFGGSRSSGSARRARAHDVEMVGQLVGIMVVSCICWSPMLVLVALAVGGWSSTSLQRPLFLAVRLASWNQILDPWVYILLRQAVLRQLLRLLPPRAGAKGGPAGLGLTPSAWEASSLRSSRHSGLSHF
Experimental: as §1

[1] = system: male Lewis rats, MIA injected knee; test: Rat MIA model of pain (incapacitance testing); assay type: in vivo; settings: 1 h post dose, P < 0.05 by Dunnett's test
Experimental: For the monoiodoacetate (MIA) and adjuvant induced arthritis (AIA) studies, male Lewis rats (Envigo, Indianapolis, IN) of approximately 8 weeks of age at the time of disease induction were used. For collagen induced arthritis studies (CIA) female Lewis rats (Charles River) weighing 150–170 g were used. Rats were housed in groups of 2 or 3 per cage and maintained in a constant temperature, and on a 12 h light/12 h dark cycle. Animals had free access to food and water at all times except during data collection.
The right knees of rats were injected with 0.3 mg of MIA (Sigma Aldrich) in 50 μL of saline and the left knees with 50 μL of saline on day zero. These intra‐articular injections are directly into the synovial cavity of the flexed knee joint through the patella ligament. Twelve days later, the rats were randomized into groups of five rats using body weight and the Block Randomized Allocation Tool. […] Reference compound CJ‐042,794 was also tested in the MIA model on day 14 post MIA injection at doses of 1, 3, 10, 30, and 50 mg/kg with the vehicle being 10% Solutol in PEG400 (n = 4 rats per group). The nonsteroidal anti‐inflammatory drug (NSAID) diclofenac was included in all studies at a dose of 5 mg/kg as a positive control. […] Pain was measured using incapacitance testing. […]

[2] = molecular target: T3, DP1(h); agonist radioligand (Homo sapiens, UniProt Q13258); test: Off-target activity (CEREP), DP1; assay type: binding; settings: 10 μmol/L; obtained at CEREP (Blanco et al. 2016c)
T3 construct: CEREP (contract laboratory that ran the assay)
T3 sequence (Q13258 1-359): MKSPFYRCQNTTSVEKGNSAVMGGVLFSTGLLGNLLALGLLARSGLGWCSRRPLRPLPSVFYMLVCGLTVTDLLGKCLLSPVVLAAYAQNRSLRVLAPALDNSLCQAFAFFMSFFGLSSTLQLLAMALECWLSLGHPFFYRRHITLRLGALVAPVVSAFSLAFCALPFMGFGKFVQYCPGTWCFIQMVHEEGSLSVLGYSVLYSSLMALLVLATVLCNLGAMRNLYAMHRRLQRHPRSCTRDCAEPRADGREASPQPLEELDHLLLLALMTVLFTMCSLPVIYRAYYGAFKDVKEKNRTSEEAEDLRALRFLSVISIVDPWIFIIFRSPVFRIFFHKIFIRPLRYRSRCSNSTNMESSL
Source text: The off‐target activity related to prostaglandin pathway (Table 2) were obtained at CEREP (Blanco et al. 2016c).

Ki (human EP3 receptor) [µM] | Ki (human EP1 receptor) [µM] | SMILES | pain efficacy (incapacitance testing) versus vehicle ([1]; 3, 10, 30, and 50 mg/kg oral) | pain efficacy (normalization of hind paw weight distribution, incapacitance testing) ([1]; 1, 3, and 10 mg/kg oral) | % Inh DP1(h); agonist radioligand [2] [%]
> 14 | > 17.5 | Cc1ccc(-c2cccc(CO)c2)nc1C(=O)Nc1c(C)ccc(C(=O)O)c1C [Compound 3] | – | – | –
> 15.5 | > 26.7 | C[C@H](NC(=O)c1cc(Cl)ccc1Oc1ccc(F)cc1)c1ccc(C(=O)O)cc1 [CJ‐042,794, reference compound] | significantly different from vehicle | – | –
– | – | Cc1ccc(N2CCC(O)CC2)nc1C(=O)Nc1c(C)cc(C(=O)O)cc1C [Compound 1] | – | – | 0.00

SMILES | Ki (human EP3 receptor) [µM] | Ki (human EP1 receptor) [µM] | pain efficacy (incapacitance testing) versus vehicle ([1]; 3, 10, 30, and 50 mg/kg oral) | pain efficacy (normalization of hind paw weight distribution, incapacitance testing) ([1]; 1, 3, and 10 mg/kg oral) | % Inh DP1(h); agonist radioligand [2] [%]
C[C@H](NC(=O)[C@H]1CCCCN1CCOc1ccccc1)c1ccc(C(=O)O)cc1 [Compound 2] | > 14 | – | – | effective | −4.00
